The results in this text go back to patent US20220133642A1, “TOPICAL FILM-FORMING SPRAY” (GRACE THERAPEUTICS INC., priority 2015, published 2022).

The data set in a line: Solubility study for drug saturation in spray vehicle. Conditions: 16 mg of drug; after standing. Format: physicochemical. How it is done: Solubility studies to find out concentration at which the drug is present at saturation levels were performed as follows: The drug (bupivacaine hydrochloride 2, 4, 8, 10, 12 & 16 mg) was added to, propylene glycol, oleyl alcohol and menthol in ethanol under stirring and mixing till clear solution is formed. The film-forming polymer in the clear drug solution was added while stirring till polymer dissolves or hydrates completely.

Molecules are shown by their SMILES. Counter-ions that a name gives are not always drawn.

In the case of `CCCCN1CCCCC1C(=O)Nc1c(C)cccc1C` (stereo not shown) [bupivacaine hydrochloride], the “appearance of drug solution” value is on record as “precipitated out from clear solution after standing”.
